This is an account of results in US20080019931A1, “Method and composition for producing enhanced fingernails” (PROSTRONG, INC, priority 2004, published 2008).

This data set in a line: Solubility in water. Format: physicochemical.

The structures appear in SMILES notation.

For `O=P([O-])([O-])P(=O)([O-])[O-].[Ca+2].[Ca+2]` [Calcium Hypophosphate], the solubility in water entry is on record as “soluble in water”.
